The structures appear in SMILES notation. Counter-ions that a name gives are not always drawn.

Among the data in patent US8435986B2, “Bicyclic traizole derivatives for treating of tumors” (Merck Patent Gesellschaft mit beschrankter Haftung, priority 2008, dated 2013) are IC50 values, retold here.

Experiment [1] addresses T1, Met kinase (Homo sapiens, UniProt P08581). Kind of experiment: Met kinase inhibition, cellular assay. Format: cell-based. Conditions: read-out: Cellular assay IC50 (cell).
Target sequence in this assay (P08581 25-1390): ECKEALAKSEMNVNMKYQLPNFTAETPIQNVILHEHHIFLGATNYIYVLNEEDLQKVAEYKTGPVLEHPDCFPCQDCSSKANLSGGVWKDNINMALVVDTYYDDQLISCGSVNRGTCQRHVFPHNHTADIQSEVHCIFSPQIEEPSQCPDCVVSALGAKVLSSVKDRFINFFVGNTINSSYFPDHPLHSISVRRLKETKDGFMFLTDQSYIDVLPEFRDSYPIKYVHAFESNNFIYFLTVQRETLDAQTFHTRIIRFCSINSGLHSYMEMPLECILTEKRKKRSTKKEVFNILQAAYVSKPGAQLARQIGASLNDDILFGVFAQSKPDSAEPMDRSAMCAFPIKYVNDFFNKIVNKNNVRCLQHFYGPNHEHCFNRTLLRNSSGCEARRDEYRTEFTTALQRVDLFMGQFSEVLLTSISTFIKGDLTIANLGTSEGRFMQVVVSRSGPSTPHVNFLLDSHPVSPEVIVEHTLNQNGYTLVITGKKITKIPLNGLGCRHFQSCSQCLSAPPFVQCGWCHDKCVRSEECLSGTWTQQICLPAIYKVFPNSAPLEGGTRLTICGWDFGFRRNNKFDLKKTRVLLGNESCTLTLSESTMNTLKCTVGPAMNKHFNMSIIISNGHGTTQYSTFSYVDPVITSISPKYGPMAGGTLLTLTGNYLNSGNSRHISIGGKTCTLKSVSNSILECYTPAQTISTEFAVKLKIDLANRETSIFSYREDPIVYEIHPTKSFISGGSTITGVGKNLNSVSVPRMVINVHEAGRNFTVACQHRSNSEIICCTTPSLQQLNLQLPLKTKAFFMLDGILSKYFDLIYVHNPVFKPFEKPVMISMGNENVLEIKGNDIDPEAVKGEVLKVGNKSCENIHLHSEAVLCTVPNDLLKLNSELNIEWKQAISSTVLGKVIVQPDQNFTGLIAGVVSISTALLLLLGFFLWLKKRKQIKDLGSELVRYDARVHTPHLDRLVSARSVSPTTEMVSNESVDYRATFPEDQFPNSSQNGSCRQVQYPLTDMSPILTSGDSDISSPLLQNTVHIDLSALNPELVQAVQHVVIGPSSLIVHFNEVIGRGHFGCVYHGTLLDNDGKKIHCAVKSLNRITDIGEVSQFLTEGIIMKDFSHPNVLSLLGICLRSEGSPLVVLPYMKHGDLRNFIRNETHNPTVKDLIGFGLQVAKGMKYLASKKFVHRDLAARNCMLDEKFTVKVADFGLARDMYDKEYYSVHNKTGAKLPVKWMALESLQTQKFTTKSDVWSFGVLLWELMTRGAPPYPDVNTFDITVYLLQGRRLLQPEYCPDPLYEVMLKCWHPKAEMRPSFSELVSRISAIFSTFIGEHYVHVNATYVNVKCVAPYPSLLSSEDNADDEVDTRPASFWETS
In experiment [2] the target is T1, Met kinase. Kind of experiment: Met kinase inhibition, biochemical assay (flashplate method). Further details: 6His (N); purchased Upstate 14-526; host or cells: Sf21 insect cells (S. frugiperda), baculovirus. Conditions: read-out: Biochemical assay IC50 (enzyme). The text has this:
Measurement of Met Kinase Activity
According to the manufacturer's data (Met, active, Upstate, catalogue No. 14-526), Met kinase is expressed for the purposes of protein production in insect cells (Sf21; S. frugiperda) and subsequent affinity-chromatographic purification as “N-terminal 6His-tagged” recombinant human protein in a baculovirus expression vector.
Flashplate Method (Met Kinase)
The test plates used are 96-well Flashplate® microtitre plates from Perkin Elmer (Cat. No. SMP200). The components of the kinase reaction described below are pipetted into the assay plate. The Met kinase and the substrate poly Ala-Glu-Lys-Tyr, (pAGLT, 6:2:5:1), are incubated for 3 hrs at room temperature with radioactively labelled ^33P-ATP in the presence and absence of test substances in a total volume of 100 μl. The reaction is terminated using 150 μl of a 60 mM EDTA solution. After incubation for a further 30 min at room temperature, the supernatants are filtered off with suction, and the wells are washed three times with 200 μl of 0.9% NaCl solution each time. The measurement of the bound radioactivity is carried out by means of a scintillation measuring instrument (Topcount NXT, Perkin-Elmer).
The full value used is the inhibitor-free kinase reaction. This should be approximately in the range 6000-9000 cpm. The pharmacological zero value used is staurosporin in a final concentration of 0.1 mM. The inhibitory values (IC50) are determined using the RS1_MTS program.
Kinase reaction conditions per well:
10 μl of substance to be tested in assay buffer with 10% of DMSO
10 μl of ATP (final concentration 1 μM cold, 0.35 μCi of ^33P-ATP)
50 μl of Met kinase/substrate mixture in assay buffer; • (10 ng of enzyme/well, 50 ng of pAGLT/well) • Solutions used: • Assay buffer: • 50 mM HEPES • 3 mM magnesium chloride • 3 μM sodium orthovanadate • 3 mM manganese(II) chloride • 1 mM dithiothreitol (DTT) • pH=7.5 (to be set using sodium hydroxide) • Stop solution: • 60 mM Titriplex III (EDTA) • ^33P-ATP: Perkin-Elmer; • Met kinase: Upstate, Cat. No. 14-526, Stock 1 μg/10 μl; spec. activity 954 U/mg; • Poly-Ala-Glu-Lys-Tyr, 6:2:5:1: Sigma Cat. No. P1152 In-Vivo Tests
Target sequence in this assay (P08581 974-1390 limits assumed): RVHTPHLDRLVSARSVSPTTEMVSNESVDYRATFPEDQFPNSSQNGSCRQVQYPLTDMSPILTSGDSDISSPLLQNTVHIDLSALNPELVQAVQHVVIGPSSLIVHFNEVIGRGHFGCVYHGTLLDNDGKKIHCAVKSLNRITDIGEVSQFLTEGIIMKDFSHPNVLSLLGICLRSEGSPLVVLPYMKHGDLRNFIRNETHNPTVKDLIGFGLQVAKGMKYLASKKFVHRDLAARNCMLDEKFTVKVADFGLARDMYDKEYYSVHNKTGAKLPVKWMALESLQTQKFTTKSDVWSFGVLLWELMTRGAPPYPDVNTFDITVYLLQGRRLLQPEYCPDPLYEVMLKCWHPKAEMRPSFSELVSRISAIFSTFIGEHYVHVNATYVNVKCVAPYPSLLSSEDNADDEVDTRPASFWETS

For the molecule `Fc1cc(F)cc(Oc2cnc3nnn(Cc4cccc(-c5ncc(Br)cn5)c4)c3n2)c1` [Compound B7, 1-[3-(5-bromopyrimidin-2-yl)benzyl]-6-(3,5-difluorophenoxy)-1H-1,2,3-triazolo[4,5-b]pyrazine], the IC50 on Met kinase [1] and at Met kinase [2] was 1 to 100 nM in each case. On to `Clc1ccc2nnn(Cc3cccc(-c4ncc(OCCN5CCOCC5)cn4)c3)c2n1` [Compound A48, 5-chloro-3-{3-[5-(2-morpholin-4-ylethoxy)pyrimidin-2-yl]-benzyl}-3H-1,2,3-triazolo[4,5-b]pyridine], for which the IC50 was in the range of 100 to 10000 nM on Met kinase [1] and 1 to 100 nM at Met kinase [2]. For `Cn1cc(Oc2cnc3nnn(Cc4cccc(-c5ncc(Br)cn5)c4)c3n2)cn1` [Compound B5, 1-[3-(5-bromopyrimidin-2-yl)benzyl]-6-(1-methyl-1H-pyrazol-4-yloxy)-1H-1,2,3-triazolo[4,5-b]pyrazine], in that order: 1 to 100 nM and 1 to 100 nM. For `CN1CCN(CCOc2cnc(-c3cccc(Cn4nnc5ncc(-c6cnn(C)c6)nc54)c3)nc2)CC1=O` [Compound B19] the same measures were 1 to 100 nM and 1 to 100 nM. For `OCCn1cc(-c2cnc3nnn(Cc4cccc(-c5ncc(OCCN6CCOCC6)cn5)c4)c3n2)cn1` [Compound B34] the same measures were 1 to 100 nM and 1 to 100 nM. In the case of `Oc1cnc(-c2cccc(Cn3nnc4ncc(-c5cc(F)cc(F)c5)nc43)c2)nc1` [Compound B10, 2-{3-[6-(3,5-difluorophenyl)-1,2,3-triazolo[4,5-b]pyrazin-1-ylmethyl]phenyl}-pyrimidin-5-ol], the IC50 on Met kinase [1] and on Met kinase [2] was 1 to 100 nM throughout.

For `N#Cc1cccc(-c2cnc3nnn(Cc4cccc(-c5ncc(OCC6CCNCC6)cn5)c4)c3n2)c1` [Compound A30], the half-inhibitory concentration (IC50) on Met kinase [1] and at Met kinase [2] was 1 to 100 nM each time.

For `Brc1cnc(-c2cccc(Cn3nnc4ncc(Br)nc43)c2)nc1` [Compound B1, 6-bromo-1-[3-(5-bromopyrimidin-2-yl)benzyl]-1H-1,2,3-triazolo[4,5-b]pyrazine], the IC50 lay in the range of 100 to 10000 nM on Met kinase [1] and 1 to 100 nM at Met kinase [2]. For `Cn1cc(-c2cnc3nnn(Cc4cccc(-c5ncc(OC6CCNCC6)cn5)c4)c3n2)cn1` [Compound A6], in that order: 1 to 100 nM and 1 to 100 nM. For `N#Cc1cccc(-c2cnc3nnn(Cc4cccc(-c5ncc(-c6cnn(CCN7CCCC7)c6)cn5)c4)c3n2)c1` [Compound B21] the same measures were 1 to 100 nM and 1 to 100 nM. For `Cn1cc(-c2cnc3nnn(Cc4cccc(-c5ncc(OCC6CNCCO6)cn5)c4)c3n2)cn1` (stereo not shown) [Compound B20], in that order: 1 to 100 nM and 1 to 100 nM. In the case of `Fc1cc(F)cc(-c2cnc3nnn(Cc4cccc(-c5ncc(OCC6CCNCC6)cn5)c4)c3n2)c1` [Compound B24], the concentration for half-maximal inhibition (IC50) at Met kinase [1] and on Met kinase [2] was 1 to 100 nM each time. In the case of `CN1CCN(CCOc2cnc(-c3cccc(Cn4nnc5ncc(-c6cnn(C)c6)nc54)c3)nc2)CC1` [Compound B17], the IC50 on Met kinase [1] and on Met kinase [2] was 1 to 100 nM in each case. As for `Fc1ccc2nnn(Cc3cccc(-c4ncc(OCCN5CCOCC5)cn4)c3)c2c1F` [Compound A46], the half-maximal inhibitory concentration (IC50) at Met kinase [1] and at Met kinase [2] was 1 to 100 nM throughout.

Turning to `N#Cc1cccc(-c2cnc3nnn(Cc4cccc(-c5ncc(OCCN6CCNCC6)cn5)c4)c3n2)c1` [Compound B22], the IC50 at Met kinase [1] and at Met kinase [2] was 1 to 100 nM each time.

Consider `Brc1cnc2nnn(Cc3cccc(-c4ncc(OCCN5CCOCC5)cn4)c3)c2n1` [Compound A1, 6-bromo-1-{3-[5-(2-morpholin-4-ylethoxy)pyrimidin-2-yl]benzyl}-1H-1,2,3-triazolo[4,5-b]-pyrazine], for which, on Met kinase [1], the half-maximal inhibitory concentration (IC50) was in the range of 1 to 100 nM. In the case of `N#Cc1cccc(Oc2cnc3nnn(Cc4cccc(-c5ncc(Br)cn5)c4)c3n2)c1` [Compound B6, 3-{3-[3-(5-bromopyrimidin-2-yl)benzyl]-3H-1,2,3-triazolo[4,5-b]pyrazin-5-yloxy}benzonitrile], the IC50 on Met kinase [1] and at Met kinase [2] was 1 to 100 nM each time.

On to `COCCn1cc(-c2cnc3nnn(Cc4cccc(-c5ncc(OCCN6CCOCC6)cn5)c4)c3n2)cn1` [Compound B33], for which the concentration for half-maximal inhibition (IC50) on Met kinase [1] and on Met kinase [2] was 1 to 100 nM each time.

Consider `CN(C)CCOc1cnc(-c2cccc(Cn3nnc4ncc(-c5cnn(C)c5)nc43)c2)nc1` [Compound B14, dimethyl-[2(2-{3-[6-(1-methyl-1H-pyrazol-4-yl)-1,2,3-triazolo[4,5-b]pyrazin-1-ylmethyl]phenyl}pyrimidin-5-yloxy)ethyl]amine hydrochloride], for which the IC50 on Met kinase [1] and at Met kinase [2] was 1 to 100 nM each time. As for `Cn1cc(-c2cnc3nnn(Cc4cccc(-c5ncc(OCC6CCNCC6)cn5)c4)c3n2)cn1` [Compound A9], the IC50 at Met kinase [1] and on Met kinase [2] was 1 to 100 nM each time. For the molecule `Clc1ccc2c(c1)nnn2Cc1cccc(-c2ncc(OCCN3CCOCC3)cn2)c1` [Compound B35, 5-Chloro-1-{3-[5-(2-morpholin-4-ylethoxy)pyrimidin-2-yl]benzyl}-1H-benzotriazole], the results for the IC50 on Met kinase [1] and at Met kinase [2] were over 10000 nM and 100 to 10000 nM, respectively. For `COc1ccc2nnn(Cc3cccc(-c4ncc(OCCCN(C)C)cn4)c3)c2n1` [Compound B37], in that order: 1 to 100 nM and 1 to 100 nM. For `Cn1cc(-c2cnc3nnn(Cc4cccc(-c5ncc(-c6cnn(CCN7CCCC7)c6)cn5)c4)c3n2)cn1` [Compound A24, 6-(1-methyl-1H-pyrazol-4-yl)-1-(3-{5-[1-(2-pyrrolidin-1-yl-ethyl)-1H-pyrazol-4-yl]pyrimidin-2-yl}benzyl)-1H-1,2,3-triazolo[4,5-b]-pyrazine hydrochloride], in that order: 1 to 100 nM and 1 to 100 nM. For `c1cc(Cn2nnc3ccccc32)cc(-c2ncc(OCCN3CCOCC3)cn2)c1` [Compound A3, 1-{3-[5-(2-morpholin-4-ylethoxy)pyrimidin-2-yl]benzyl}-1H-benzotriazole], in that order: 100 to 10000 nM and 1 to 100 nM. As to `Cn1cc(-c2cnc3nnn(Cc4cccc(-c5ncc(OCCN6CCOCC6)cn5)c4)c3n2)cn1` [Compound A2, 6-(1-methyl-1H-pyrazol-4-yl)-1-{3-[5-(2-morpholin-4-ylethoxy)-pyrimidin-2-yl]benzyl}-1H-1,2,3-triazolo[4,5-b]pyrazine], the IC50 on Met kinase [1] and at Met kinase [2] was 1 to 100 nM each time. Consider `Cn1cc(-c2cnc3nnn(Cc4cccc(-c5ncc(OCCCN6CCOCC6)cn5)c4)c3n2)cn1` [Compound B18], for which the IC50 on Met kinase [1] and on Met kinase [2] was 1 to 100 nM in each case. `Cn1cc(-c2cnc3nnn(Cc4cccc(-c5ncc(OCCCO)cn5)c4)c3n2)cn1` [Compound B15]: the IC50 at Met kinase [1] and at Met kinase [2] was 1 to 100 nM throughout.

Turning to `COCCOc1cnc(-c2cccc(Cn3nnc4ncc(-c5cnn(C)c5)nc43)c2)nc1` [Compound B16], the IC50 at Met kinase [1] and on Met kinase [2] was 1 to 100 nM in each case. With `N#Cc1cccc(-c2cnc3nnn(Cc4cccc(-c5ncc(OC6CCNCC6)cn5)c4)c3n2)c1` [Compound A27], the IC50 at Met kinase [1] and on Met kinase [2] was 1 to 100 nM in each case.

On to `O=[N+]([O-])c1ccc(Br)cc1NCc1cccc(-c2ncc(OCCN3CCOCC3)cn2)c1` [Compound B36, (5-bromo-2-nitrophenyl)-{3-[5-(2-morpholin-4-ylethoxy)-pyrimidin-2-yl]benzyl}amine], for which the IC50 on Met kinase [1] lay within 100 to 10000 nM; on Met kinase [2] it was 1 to 100 nM. As for `Fc1cc(F)cc(-c2cnc3nnn(Cc4cccc(-c5ncc(OCCN6CCNCC6)cn5)c4)c3n2)c1` [Compound B23], the 50% inhibitory concentration (IC50) on Met kinase [1] and on Met kinase [2] was 1 to 100 nM each time.

The term IC50 denotes the point on the concentration scale where inhibition reaches its midpoint.
